From PubChem BioAssay (NCI)
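In this assay, cells in 96-well plates receive the compound at five concentrations for 48 hours. Endpoints are linearly interpolated between the surrounding concentrations. TGI: concentration producing complete growth inhibition.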

Columns and labels:
Assay in all cases: NCI tumour cell line growth inhibition, 48 h
786-0 renal = test system: 786-0 renal
A498 renal = test system: A498 renal
A549 NSCLC = test system: A549 NSCLC
ACHN renal = test system: ACHN renal
CAKI-1 renal = test system: CAKI-1 renal
CCRF-CEM leukemia = test system: CCRF-CEM leukemia
COLO 205 colon = test system: COLO 205 colon
DLD-1 colon = test system: DLD-1 colon
DMS 114 small cell lung = test system: DMS 114 small cell lung
DMS 273 small cell lung = test system: DMS 273 small cell lung
EKVX NSCLC = test system: EKVX NSCLC
HCC-2998 colon = test system: HCC-2998 colon
HCT-116 colon = test system: HCT-116 colon
HCT-15 colon = test system: HCT-15 colon
HL-60(TB) leukemia = test system: HL-60(TB) leukemia
HOP-18 NSCLC = test system: HOP-18 NSCLC
HOP-62 NSCLC = test system: HOP-62 NSCLC
HOP-92 NSCLC = test system: HOP-92 NSCLC
HT29 colon = test system: HT29 colon
IGROV1 ovarian = test system: IGROV1 ovarian
K-562 leukemia = test system: K-562 leukemia
KM12 colon = test system: KM12 colon
KM20L2 colon = test system: KM20L2 colon
LOX IMVI melanoma = test system: LOX IMVI melanoma
LXFL 529 NSCLC = test system: LXFL 529 NSCLC
M14 melanoma = test system: M14 melanoma
M19-MEL melanoma = test system: M19-MEL melanoma
MOLT-4 leukemia = test system: MOLT-4 leukemia
NCI-H226 lung = test system: NCI-H226 lung
NCI-H23 lung = test system: NCI-H23 lung
NCI-H460 lung = test system: NCI-H460 lung
NCI-H522 lung = test system: NCI-H522 lung
OVCAR-3 ovarian = test system: OVCAR-3 ovarian
OVCAR-4 ovarian = test system: OVCAR-4 ovarian
OVCAR-5 ovarian = test system: OVCAR-5 ovarian
OVCAR-8 ovarian = test system: OVCAR-8 ovarian
RPMI-8226 leukemia = test system: RPMI-8226 leukemia
RXF 393 renal = test system: RXF 393 renal
SF-268 CNS = test system: SF-268 CNS
SF-295 CNS = test system: SF-295 CNS
SF-539 CNS = test system: SF-539 CNS
SK-MEL-2 melanoma = test system: SK-MEL-2 melanoma
SK-MEL-28 melanoma = test system: SK-MEL-28 melanoma
SK-MEL-5 melanoma = test system: SK-MEL-5 melanoma
SK-OV-3 ovarian = test system: SK-OV-3 ovarian
SN12C renal = test system: SN12C renal
SNB-19 CNS = test system: SNB-19 CNS
SNB-78 CNS = test system: SNB-78 CNS
SR leukemia = test system: SR leukemia
SW-620 colon = test system: SW-620 colon
TK-10 renal = test system: TK-10 renal
U251 CNS = test system: U251 CNS
UACC-257 melanoma = test system: UACC-257 melanoma
UACC-62 melanoma = test system: UACC-62 melanoma
UO-31 renal = test system: UO-31 renal
XF 498 CNS = test system: XF 498 CNS
RXF-631 renal = test system: RXF-631 renal
SNB-75 CNS = test system: SNB-75 CNS

Clc1ncnc2c1ncn2CCCCCCCCCCCCn1cnc2c(Cl)ncnc21
TGI (786-0 renal): 71.8 µM
TGI (A498 renal): 24.6 µM
TGI (A549 NSCLC): 26.4 µM
TGI (ACHN renal): 27.9 µM
TGI (CAKI-1 renal): 7.68 µM
TGI (CCRF-CEM leukemia): > 100 µM
TGI (COLO 205 colon): 29.1 µM
TGI (DLD-1 colon): 20.4 µM
TGI (DMS 114 small cell lung): 3.55 µM
TGI (DMS 273 small cell lung): 14.1 µM
TGI (EKVX NSCLC): 33 µM
TGI (HCC-2998 colon): 19.5 µM
TGI (HCT-116 colon): 24.8 µM
TGI (HCT-15 colon): 25.8 µM
TGI (HL-60(TB) leukemia): 19.1 µM
TGI (HOP-18 NSCLC): 58.3 µM
TGI (HOP-62 NSCLC): 33 µM
TGI (HOP-92 NSCLC): 19.4 µM
TGI (HT29 colon): 21.5 µM
TGI (IGROV1 ovarian): 15.7 µM
TGI (K-562 leukemia): 17.4 µM
TGI (KM12 colon): 28.9 µM
TGI (KM20L2 colon): 30 µM
TGI (LOX IMVI melanoma): 7.19 µM
TGI (LXFL 529 NSCLC): 17.5 µM
TGI (M14 melanoma): 29.6 µM
TGI (M19-MEL melanoma): 5.7 µM
TGI (MOLT-4 leukemia): 42.9 µM
TGI (NCI-H226 lung): 24.5 µM
TGI (NCI-H23 lung): 10.8 µM
TGI (NCI-H460 lung): 31.8 µM
TGI (NCI-H522 lung): 2.87 µM
TGI (OVCAR-3 ovarian): 23.3 µM
TGI (OVCAR-4 ovarian): 23.3 µM
TGI (OVCAR-5 ovarian): 72.7 µM
TGI (OVCAR-8 ovarian): 23.8 µM
TGI (RPMI-8226 leukemia): 25.4 µM
TGI (RXF 393 renal): 32.2 µM
TGI (SF-268 CNS): 27.7 µM
TGI (SF-295 CNS): 28.8 µM
TGI (SF-539 CNS): 27.8 µM
TGI (SK-MEL-2 melanoma): 26.4 µM
TGI (SK-MEL-28 melanoma): 6.82 µM
TGI (SK-MEL-5 melanoma): 17.5 µM
TGI (SK-OV-3 ovarian): 33.3 µM
TGI (SN12C renal): 37.5 µM
TGI (SNB-19 CNS): 27.8 µM
TGI (SNB-78 CNS): 11.2 µM
TGI (SR leukemia): 3.82 µM
TGI (SW-620 colon): 60.8 µM
TGI (TK-10 renal): 54.1 µM
TGI (U251 CNS): 23.7 µM
TGI (UACC-257 melanoma): 11.9 µM
TGI (UACC-62 melanoma): 26.9 µM
TGI (UO-31 renal): 25.8 µM
TGI (XF 498 CNS): 21.6 µM

COc1ccccc1NC(=O)CC(=O)NNCC(=O)Nc1nnc(-c2ccccc2)o1
TGI (786-0 renal): > 100 µM
TGI (A498 renal): > 100 µM
TGI (A549 NSCLC): > 100 µM
TGI (ACHN renal): > 100 µM
TGI (CAKI-1 renal): > 100 µM
TGI (COLO 205 colon): > 100 µM
TGI (DLD-1 colon): > 100 µM
TGI (DMS 114 small cell lung): > 100 µM
TGI (DMS 273 small cell lung): > 100 µM
TGI (EKVX NSCLC): > 100 µM
TGI (HCC-2998 colon): > 100 µM
TGI (HCT-116 colon): > 100 µM
TGI (HCT-15 colon): > 100 µM
TGI (HOP-62 NSCLC): > 100 µM
TGI (HT29 colon): > 100 µM
TGI (IGROV1 ovarian): > 100 µM
TGI (K-562 leukemia): > 100 µM
TGI (KM12 colon): > 100 µM
TGI (KM20L2 colon): > 100 µM
TGI (LOX IMVI melanoma): > 100 µM
TGI (LXFL 529 NSCLC): > 100 µM
TGI (M14 melanoma): > 100 µM
TGI (M19-MEL melanoma): > 100 µM
TGI (MOLT-4 leukemia): > 100 µM
TGI (NCI-H226 lung): > 100 µM
TGI (NCI-H23 lung): > 100 µM
TGI (NCI-H522 lung): > 100 µM
TGI (OVCAR-3 ovarian): > 100 µM
TGI (OVCAR-4 ovarian): > 100 µM
TGI (OVCAR-5 ovarian): > 100 µM
TGI (OVCAR-8 ovarian): > 100 µM
TGI (RPMI-8226 leukemia): > 100 µM
TGI (RXF-631 renal): > 100 µM
TGI (SF-268 CNS): > 100 µM
TGI (SF-295 CNS): > 100 µM
TGI (SF-539 CNS): > 100 µM
TGI (SK-MEL-2 melanoma): > 100 µM
TGI (SK-MEL-28 melanoma): > 100 µM
TGI (SK-MEL-5 melanoma): > 100 µM
TGI (SK-OV-3 ovarian): > 100 µM
TGI (SN12C renal): > 100 µM
TGI (SNB-19 CNS): > 100 µM
TGI (SNB-75 CNS): > 100 µM
TGI (SNB-78 CNS): > 100 µM
TGI (SR leukemia): > 100 µM
TGI (SW-620 colon): > 100 µM
TGI (TK-10 renal): > 100 µM
TGI (U251 CNS): > 100 µM
TGI (UACC-257 melanoma): > 100 µM
TGI (UACC-62 melanoma): > 100 µM
TGI (UO-31 renal): > 100 µM
TGI (XF 498 CNS): > 100 µM
